Converted amounts (≈) assume the structure as drawn.

One assay concerns SKOV-3 cells. Briefly: MTT cell viability assay, SKOV-3. The class given is cell-based, human. To be noted: SKOV-3, MTT; for IC50: Homo sapiens. On the procedure: (§1) Metastatic ovarian adenocarcinoma (SKOV-3) and normal Chinese hamster ovary (CHO) cell lines were originally obtained from the American Type Culture Collection (ATCC; Manassas, VA). SKOV-3 cells were cultured in McCoy’s 5A medium and CHO cells were cultured in F12K medium. A human periodontal ligament fibroblast cell line was purchased from Lonza, USA and maintained in stroma cell basal medium. T1074 (normal immortalized human ovarian surface epithelial cell line) was originally purchased from Applied Biological Materials (abm®) Canada and cultured in Prigrow 1 medium.
(§2) The inhibitory effects of artonin E and two positive controls paclitaxel and carboplatin were examined by MTT assay. Cells at a density of 5×10^3cells/well were placed in a 96-well plate and left for 24 h to attach. The attached cells were exposed to artonin E, paclitaxel, and carboplatin at different concentrations and incubated for 24, 48, and 72 h. Subsequently, 20 μL of 5 mg/mL MTT solution was added after drug treatment and the resulting mixture was incubated for 4 h to form purple formazan. Afterward, 100 μL of dimethyl sulfoxide (DMSO) was transferred into each well to dissolve the purple formazan, and results were measured using a microplate reader (Tecan Infinite M 200 PRO, Männedorf, Switzerland) at an absorbance of 570 nm. The half-maximal concentrations that caused cell growth inhibition (IC50 values) were obtained from the MTT viability growth curve.
In general terms: Tetrazolium dyes change colour on reduction, which living cells bring about.

A further assay concerns T1074 cells. The experiment in a line: MTT cell viability assay, T1074. It counts as cell-based, human. The settings on record: for IC50: Homo sapiens. On the procedure: as §1, §2

Consider `N.N.O=C([O-])C1(C(=O)[O-])CCC1.[Pt+2]` [Carboplatin, carboplatin], for which the IC50 values was determined as 15.1 ± 0.36 µg/mL in the assay with SKOV-3 cells (24 h treatment); 10.5 ± 0.5 µg/mL in the assay on SKOV-3 cells (48 h treatment); 7.2 ± 0.25 µg/mL with SKOV-3 cells (72 h treatment); 45.6 ± 0.57 µg/mL in the assay on T1074 cells (24 h treatment); 25.8 ± 0.28 µg/mL in the assay with T1074 cells (48 h treatment); 10.8 ± 0.7 µg/mL in the assay with T1074 cells (72 h treatment).
As to `CC(=O)O[C@H]1C(=O)[C@@]2(C)[C@H]([C@H](OC(=O)c3ccccc3)[C@]3(O)C[C@H](OC(=O)[C@H](O)[C@@H](NC(=O)c4ccccc4)c4ccccc4)C(C)=C1C3(C)C)[C@]1(OC(C)=O)CO[C@@H]1C[C@@H]2O` [Paclitaxel, paclitaxel], the IC50 (usually the point on the concentration scale where inhibition reaches its midpoint) with SKOV-3 cells (SK-OV-3, 24 h, 24 h treatment) was 4.6 ± 0.28 µg/mL (≈ 5.39 µM); with SKOV-3 cells (SK-OV-3, 48 h, 48 h treatment), 2.5 ± 0.2 µg/mL (≈ 2.93 µM); in the assay on SKOV-3 cells (SK-OV-3, 72 h, 72 h treatment), 0.8 ± 0.2 µg/mL (≈ 0.937 µM); in the assay with T1074 cells (24 h treatment) it was more than 50 µg/mL; in the assay on T1074 cells (48 h treatment), 49.3 ± 0.76 µg/mL (≈ 57.7 µM); in the assay on T1074 cells (72 h treatment), 30.5 ± 0.5 µg/mL (≈ 35.7 µM).

The values above are taken from article PMC4809498, “Artonin E Induces Apoptosis via Mitochondrial Dysregulation in SKOV-3 Ovarian Cancer Cells” (PLoS ONE, 2016).
